Patent publication US11091517B2, “Peptide derivative and pharmaceutical composition containing same” (TOKUSHIMA UNIVERSITY, priority 2017, dated 2021)
Read-outs that look alike come from different tables or passages of the source. *1 amine or outer side, *2 acyl side, *3 side chain or, on linkers, in order; H or OH if unused. Where a SMILES comes first, the peptide text is derived from it. Bridges are numbered along the chain shown (N, C = ends). NH(CH2)4NH = C(CCN[*:2])CN[*:1]

Experiments:
[1] = molecular target: T1, PKA (Homo sapiens, UniProt P17612); test: PKA activity of BIG3 immunoprecipitates from SK-BR-3 cells; format: cell-based
T1 construct: endogenous in cells; host or cells: SK-BR-3

[2] = test system: PP1Cα; test: PP1Cα activity of BIG3 immunoprecipitates from SK-BR-3 cells; format: cell-based, human; conditions: SK-BR-3, 24 hours; 10 μM H-89, 100 μg/mL trastuzumab, 10 nM lapatinib
[3] = test system: BIG3 phosphorylation; test: BIG3 phosphorylation (Ser305, Ser1208) in SK-BR-3 and KPL-4 cells, immunoblot; format: cell-based, human; conditions: SK-BR-3 and KPL-4, 30 minutes; 10 μM H-89, 100 μg/mL trastuzumab, 10 nM lapatinib
[4] = test system: MCF-7 cells; format: cell-based, human; conditions: for inhibition rate on estrogen-dependent cell growth: 96 h
[5] = molecular target: T2, chymotrypsin (Bos taurus, UniProt P00766); test: Chymotrypsin resistance (HPLC); format: in vitro ADME; conditions: 1 μg chymotrypsin, 5 μg peptide, 37° C., 24 hours
T2 construct: purchased Sigma C7761
Procedure: The chromatograms for double stapled ERAP No. 45 (A) and double stapled ERAP No. 46 (B), when a double stapled ERAP was reacted with chymotrypsin at 37° C. for 24 hours, are shown. In the experiment, the double stapled ERAP-chymotrypsin reaction solutions were subjected to high performance liquid chromatography (reverse-phase column, 0.3 mL/min flow rate, gradient elution (solution A: 0.1% trifluoroacetic acid; solution B: 0.1% trifluoroacetic acid/acetonitrile, A/B=90/10 (0-20 min) to 40/60 (20-80 min))), and detection was carried out by UV at 210 nm.
Chymotrypsin resistance was analyzed by adding 1 μg of chymotrypsin (#C7761, Sigma) and 5 μg of double stapled ERAP in a buffer (50 mM Tris-HCl; pH 8.0, 10 mM CaCl2), allowing this to react at 37° C. for 24 hours, and then subjecting the whole amount to high-performance liquid chromatography (HPLC). For the HPLC, a reverse-phase column (Inertsil Peptides C18 250×3.0 mm I.D.; GL Science, Tokyo, Japan) was used, gradient elution was performed using Solution A (0.1% trifluoroacetic acid) and Solution B (0.1% trifluoroacetic acid/acetonitrile) (A/B=90/10 (0-20 min), 90/10-40/60 (20-80 min)) at a flow rate of 0.3 mL/min, and a chromatogram for each double stapled ERAP was obtained by UV detection at 210 nm.

[6] = test system: BT-20; format: cell-based, human; conditions: 96 h
Procedure: (§1) For the single stERAP and double stERAP #46, peptides were added at a total of eleven concentrations prepared by three-fold serial dilution starting from 20 μM. For the double stERAP #45, peptides were added at a total of eight concentrations prepared by two-fold serial dilation starting from 50 μM. The number of viable cells were measured 96 hours after the peptide addition, and relative values thereof were calculated based on the negative control cells without peptide addition and plotted. Experiments using double stERAP #45 on the SW982 cell line were not carried out.
(§2) MDA-MB-231 cells and SW982 cells were cultured using Leibovitz's L-15 medium (Thermo Fisher Scientific) at 37° C. without CO2 concentration control. All media were used by supplementing 10% FBS (Thermo Fisher Scientific) and a 1% antibiotic/antimycotic solution (Wako Pure Chemical, Osaka, Japan).
(§3) SK-BR-3 cells, BT-20 cells, and MDA-MB-231 cells were seeded into 48-well plates at 1×10^4 cells/200 μL in each well, and SW982 cells were seeded into 48-well plates at 0.5×10^4 cells/200 μL in each well. 48 hours later, the medium in each well was exchanged to a medium supplemented with a peptide (single stERAP and double stERAP #46: three-fold serial dilution from 20 μM, double stERAP #45: two-fold serial dilution starting from 50 μM), and after culturing for another 96 hours, the level of cell growth was measured using the Cell Counting Kit-8 (Dojindo, Kumamoto, Japan). Data were obtained from three independent experiments, a graph (mean±standard deviation) was produced using a graphing and data analyzing software SigmaPlot (Systat Software, San Jose, Calif., USA), and the 50% inhibition concentration (IC50) of the peptide against cell growth was calculated.

[7] = test system: MDA-MB-231; format: cell-based, human; conditions: 96 h
Procedure: as §1, §2, §3

[8] = test system: SK-BR-3; format: cell-based, human; conditions: 96 h
Procedure: as §1, §2, §3

[9] = molecular target: T3, BIG3-PHB2 interaction (Homo sapiens, UniProt Q99623); test: Inhibition of BIG3-PHB2 interaction in MCF-7 cells (immunoprecipitation, Western blotting); format: cell-based; conditions: MCF7, 96 hours, 10 nM estrogen, read-out: inhibition rate of BIG3-PHB2 binding
T3 construct: endogenous in cells; host or cells: MCF-7
T3 sequence (Q99623 2-299 limits assumed): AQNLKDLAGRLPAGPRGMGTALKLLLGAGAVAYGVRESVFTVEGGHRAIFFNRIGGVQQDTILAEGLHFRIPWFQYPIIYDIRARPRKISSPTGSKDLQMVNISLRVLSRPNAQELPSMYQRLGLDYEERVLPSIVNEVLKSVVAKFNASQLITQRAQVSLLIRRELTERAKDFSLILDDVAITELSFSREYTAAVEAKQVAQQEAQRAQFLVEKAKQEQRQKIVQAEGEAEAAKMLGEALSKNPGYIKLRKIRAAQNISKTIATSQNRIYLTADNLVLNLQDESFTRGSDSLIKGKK
Procedure: (A, B) Inhibitory effect of double stapled ERAP No. 46 on BIG3-PHB2 interaction in MCF-7 cells was evaluated by Western blotting. […] Then, the cells were lysed, immunoprecipitation was performed using an anti-BIG3 antibody, and immunoblot analyses were performed using the antibodies indicated in the drawing. The binding inhibition rates are expressed as proportions to the band area for PHB2 in untreated cells which is set as 100.
For immunoblot analyses, after performing SDS-PAGE, the membranes blotted with proteins were blocked with 4% BlockAce solution (Dainippon Pharmaceutical, Osaka, Japan) for 3 hours and then incubated to react for 12 hours with antibodies against BIG3 (1:1,000) and PHB2 (1:1,000) (Abcam, Cambridge, UK). After allowing interaction with HRP-labeled secondary antibodies (anti-rat IgG-HRP for BIG3, 1:5,000; and anti-rabbit IgG-HRP for PHB2, 1:1,000) (Santa Cruz Biotechnology, Dallas, Tex., USA) for 1 hour, the blots were developed with the Enhanced Chemiluminescence (ECL) system (GE Healthcare, Buckinghamshire, UK) and scanned using the Image Reader LAS-3000 mini (Fujifilm, Tokyo, Japan). […]

[10] = test system: SW982; format: cell-based, human; conditions: 96 h
Procedure: as §1, §2, §3

[11] = test system: PHB2 (Ser39) phosphorylation; test: PHB2 (Ser39) phosphorylation in SK-BR-3 cells, immunoblot; format: cell-based, human; conditions: SK-BR-3, presence of 1 μM stERAP; 100 μg/mL trastuzumab, 10 nM lapatinib
[12] = test system: PKCα; test: PKCα activity of PKCα immunoprecipitates from SK-BR-3 cells; format: cell-based, human; conditions: SK-BR-3, 10 nM lapatinib in the presence of stERAP, 24 hours
Procedure: (A) Immunoblots are shown which indicate that PHB2 (Ser39) is phosphorylated in a PKCα-dependent manner in a HER2-positive breast cancer cell line. SK-BR-3 cells in which PKCα expression was suppressed by the siRNA method were treated for 24 hours with 1 μM stERAP, then cell lysate thereof was subjected to immunoprecipitation using an anti-PHB2 antibody, and immunoblot analyses were performed using the antibodies shown in the drawing. (B) PKCα activity by EGFR signaling in SK-BR-3 cells is shown. SK-BR-3 cells were treated for 24 hours with 1 μM stERAP, and with 10 nM lapatinib in the presence of stERAP, cell lysates thereof were subjected to immunoprecipitation using an anti-PKCα antibody, and PKCα activities were calculated using CREBtide as a substrate. Data represent the mean±standard error of three independent experiments.
The activities of protein kinase A (PKA) and protein kinase C alpha (PKCα) were measured by reacting the immunoprecipitates of BIG3 and PKCα with a synthetic substrate CREBtide ([…]) and 0.5 mM ATP in a kinase buffer (25 mM Hepes, pH 7.2, 25 mM MgCl2, 5 mM EDTA, 5 mM EGTA, 0.25 mM DTT) at 30° C. for 30 minutes, and by using an ADP-Glo kinase assay Kit (Promega, Fitchburg, Wis., USA).

[13] = test system: HER2-HER3 interaction; test: HER2-HER3 interaction, immunoprecipitation with anti-HER2 antibody; format: cell-based, human; conditions: SK-BR-3, 2 μM AZ3146 and 1 μM stERAP, 24 hours
[14] = test system: HER2-Shc interaction; test: HER2-Shc interaction, immunoprecipitation with anti-HER2 antibody; format: cell-based, human; conditions: SK-BR-3, 2 μM AZ3146 and 1 μM stERAP, 24 hours

IC50 [4] [nM]	degradation by chymotrypsin treatment (chromatogram) [5]	IC50 [6] [nM]	IC50 [7] [nM]	IC50 [8] [nM]	Compound	inhibition rate for PP1Cα activity [2]	suppression of BIG3 phosphorylation (Ser305 and Ser1208) [3]	other results
					O=S(=O)(NCCNC/C=C/c1ccc(Br)cc1)c1cccc2cnccc12 [H-89]	96%	nearly completely suppressed	inhibition rate for PKA activity ([1]; SK-BR-3, 24 hours, 10 μM H-89, 100 μg/mL trastuzumab, 10 nM lapatinib): 100%
2320	several degradation products	8600	23700	2800	CSCC[C@H](NC(=O)[C@H](CCC(N)=O)NC(C)=O)C(=O)N[C@H]1CCC(=O)NCCCCNC(=O)CC[C@@H](C(=O)N[C@H]2CCC(=O)NCCCCNC(=O)CC[C@@H](C(=O)N[C@@H](CCCNC(=N)N)C(N)=O)NC(=O)[C@H](CCCNC(=N)N)NC(=O)[C@H](CC(C)C)NC(=O)[C@H](CCC(N)=O)NC2=O)NC(=O)[C@H](CC(C)C)NC(=O)[C@H](CC(=O)O)NC(=O)[C@H](CO)NC1=O [double stapled ERAP No. 45] (Ac-QMESDLEEQLRER-NH2; linker 3-7, 8-12 via NH(CH2)4NH)			inhibition rate on estrogen-dependent cell growth ([4]; 1 μM): 21%
430	hardly showed its degradation	74	143	20	CSCC[C@H](NC(=O)[C@H](CCC(N)=O)NC(C)=O)C(=O)N[C@H]1CCC(=O)NCCCCNC(=O)CC[C@@H](C(=O)N[C@@H](CC(C)C)C(=O)N[C@@H](CCC(N)=O)C(=O)N[C@H]2CCC(=O)NCCCCNC(=O)CC[C@@H](C(N)=O)NC(=O)[C@H](CCCNC(=N)N)NC(=O)[C@H](CCC(N)=O)NC(=O)[C@H](CCCNC(=N)N)NC2=O)NC(=O)[C@H](CC(C)C)NC(=O)[C@H](CC(=O)O)NC(=O)[C@H](CO)NC1=O [double stapled ERAP No. 46] (Ac-QMESDLELQERQRE-NH2; linker 3-7, 10-14 via NH(CH2)4NH)			inhibition rate on estrogen-dependent cell growth ([4]; 10 μM): 91%; inhibition at 1 µM ([9]; 1 μM): 60%; inhibition at 10 µM ([9]; 10 μM): 95%; IC50 [10]: 26 nM
					CS(=O)(=O)CCNCc1ccc(-c2ccc3ncnc(Nc4ccc(OCc5cccc(F)c5)c(Cl)c4)c3c2)o1 [lapatinib]	about 15%	not so involved in the suppression of BIG3 phosphorylation	inhibition at 0.01 µM ([1]; SK-BR-3, read-out: inhibition rate for PKA activity): ~15%; decrease of PHB2 (Ser39) phosphorylation [11]: nearly completely suppressed; PKCα activity inhibition [12]: approximately 80%
					AZ3146			effect on stERAP inhibition of HER2-HER3 interaction [13]: nearly completely canceled the inhibitory effects; effect on stERAP inhibition of HER2-Shc interaction [14]: nearly completely canceled the inhibitory effects
